Patent US20240368157A1, “FORMS AND COMPOSITIONS OF A JAK2 INHIBITOR” (Ajax Therapeutics, Inc., priority 2023, published 2024)

What was measured:
JAK1 = molecular target: T1, JAK1 (Homo sapiens, UniProt P23458); assay: JAK Family Selectivity Assay (JAK1 vs JAK2 binding affinity); details: selectivity over JAK2
T1 construct: made in house; host or cells: E. coli (BL21-derived, T7 phage display) or HEK-293
Protocol: (§1) Provided compounds are evaluated for selectivity by comparing their JAK2 binding affinity (Kd) in the above JAK2 Binding Assay with their binding affinity (Kd) for one or more other kinases. Binding affinity for other kinases is determined as follows: Kinase-tagged T7 phage strains are prepared in an E. coli host derived from the BL21 strain. E. coli are grown to log-phase and infected with T7 phage and incubated with shaking at 32° C. until lysis. The lysates are centrifuged and filtered to remove cell debris. The remaining kinases are produced in HEK-293 cells and subsequently tagged with DNA for qPCR detection. Streptavidin-coated magnetic beads are treated with biotinylated small molecule ligands for 30 minutes at room temperature to generate affinity resins for kinase assays. The liganded beads are blocked with excess biotin and washed with blocking buffer (SeaBlock (Pierce), 1% BSA, 0.05% Tween 20, 1 mM DTT) to remove unbound ligand and to reduce non-specific binding. Binding reactions are assembled by combining kinases, liganded affinity beads, and test compounds in 1× binding buffer (20% SeaBlock, 0.17×PBS, 0.05% Tween 20, 6 mM DTT). Test compounds are prepared as 111× stocks in 100% DMSO. Kds are determined using an 11-point 3-fold compound dilution series with three DMSO control points. […] The kinase concentration in the eluates is measured by qPCR. […]

[1] = Hepatocyte Stability Assay (human hepatocytes); assay type: in vitro ADME; details: cryopreserved hepatocytes, read-out: Human Heps CLint
Protocol: (§2) 10 mM stock solutions of test compound and positive control are prepared in DMSO. Stock solutions are diluted to 100 μM by combining 198 μL of 50% acetonitrile/50% water and 2 μL of 10 mM stock solution. Verapamil is used as positive control in the assay. Vials of cryopreserved hepatocytes are thawed in a 37° C. water bath with gently shaking. The contents are poured into the 50 mL thawing medium conical tube. Vials are centrifuged at 100 g for 10 minutes at room temperature. Thawing medium is aspirated and hepatocytes are re-suspended with serum-free incubation medium to yield ˜1.5×10^6 cells/mL. Cell viability and density are counted using a Trypan Blue exclusion, and then cells are diluted with serum-free incubation medium to a working cell density of 0.5×10^6 viable cells/mL. A portion of the hepatocytes at 0.5×10^6 viable cells/mL are boiled for 5 min prior to adding to the plate as negative control to eliminate the enzymatic activity so that little or no substrate turnover should be observed. Aliquots of 198 μL hepatocytes are dispensed into each well of a 96-well non-coated plate. The plate is placed in the incubator for approximately 10 minutes. Aliquots of 2 μL of the 100 μM test compound and 2 μL positive control are added into respective wells of a non-coated 96-well plate to start the reaction. The final concentration of test compound is 1 μM. […]

TYK2 = molecular target: T2, TYK2 (Homo sapiens, UniProt P29597); assay: JAK Family Selectivity Assay (TYK2 vs JAK2 binding affinity); details: selectivity over JAK2
T2 construct: made in house; host or cells: E. coli (BL21-derived, T7 phage display) or HEK-293
Protocol: as §1

[2] = Hepatocyte Stability Assay (rat hepatocytes); assay type: in vitro ADME; details: cryopreserved hepatocytes, read-out: Rat Heps CLint
Protocol: as §2

[3] = system: JAK2-mediated pSTAT5 signaling in constitutively active essential thrombocytopenia cells carrying the V617F mutation; assay: SET2-pSTAT5 Cellular Assay; assay type: cell-based; details: Homo sapiens, SET-2, 4 hours
Protocol: This assay measures inhibition of JAK2-mediated pSTAT5 signaling in constitutively active essential thrombocytopenia cells carrying the V617F mutation. Cells are harvested from a flask into cell culture medium, and the number of cells is counted. The cells are diluted with culture medium and 100 μL of cell suspension (50000/well) is added into each well of a 96-well cell culture plate. A solution of test compound is added to the assay plate. The plates are covered with a lid and placed in a 37° C. 5% CO2 incubator for 4 hours. After 4 hours, the cells are spun, and the cell pellets are re-suspended with 100 μL cold PBS. Then, the cells are spun again at 4° C. and 4000 rpm for 5 min. PBS is aspirated, and 25 μL lysis buffer (with protease and phosphatase inhibitor cocktail) is added to each cell pellet. The cell lysate is shaken at 4° C. for 20 min to fully lyse the cells. The cell lysate is spun at 4° C. and 4000 rpm for 15 min, and then the supernatant is transferred into a new plate and stored at −80° C. Meso-scale discovery (MSD) is used to analyze plates as follows: a standard MSD plate is coated with capture antibody in PBS (40 μL/well) and is incubated at 4° C. overnight with shaking. […] MSD reading buffer (1×) is added to the plates (150 μL/well), and they are diluted from 4× with water. […]

T2 sequence (P29597 whole entry): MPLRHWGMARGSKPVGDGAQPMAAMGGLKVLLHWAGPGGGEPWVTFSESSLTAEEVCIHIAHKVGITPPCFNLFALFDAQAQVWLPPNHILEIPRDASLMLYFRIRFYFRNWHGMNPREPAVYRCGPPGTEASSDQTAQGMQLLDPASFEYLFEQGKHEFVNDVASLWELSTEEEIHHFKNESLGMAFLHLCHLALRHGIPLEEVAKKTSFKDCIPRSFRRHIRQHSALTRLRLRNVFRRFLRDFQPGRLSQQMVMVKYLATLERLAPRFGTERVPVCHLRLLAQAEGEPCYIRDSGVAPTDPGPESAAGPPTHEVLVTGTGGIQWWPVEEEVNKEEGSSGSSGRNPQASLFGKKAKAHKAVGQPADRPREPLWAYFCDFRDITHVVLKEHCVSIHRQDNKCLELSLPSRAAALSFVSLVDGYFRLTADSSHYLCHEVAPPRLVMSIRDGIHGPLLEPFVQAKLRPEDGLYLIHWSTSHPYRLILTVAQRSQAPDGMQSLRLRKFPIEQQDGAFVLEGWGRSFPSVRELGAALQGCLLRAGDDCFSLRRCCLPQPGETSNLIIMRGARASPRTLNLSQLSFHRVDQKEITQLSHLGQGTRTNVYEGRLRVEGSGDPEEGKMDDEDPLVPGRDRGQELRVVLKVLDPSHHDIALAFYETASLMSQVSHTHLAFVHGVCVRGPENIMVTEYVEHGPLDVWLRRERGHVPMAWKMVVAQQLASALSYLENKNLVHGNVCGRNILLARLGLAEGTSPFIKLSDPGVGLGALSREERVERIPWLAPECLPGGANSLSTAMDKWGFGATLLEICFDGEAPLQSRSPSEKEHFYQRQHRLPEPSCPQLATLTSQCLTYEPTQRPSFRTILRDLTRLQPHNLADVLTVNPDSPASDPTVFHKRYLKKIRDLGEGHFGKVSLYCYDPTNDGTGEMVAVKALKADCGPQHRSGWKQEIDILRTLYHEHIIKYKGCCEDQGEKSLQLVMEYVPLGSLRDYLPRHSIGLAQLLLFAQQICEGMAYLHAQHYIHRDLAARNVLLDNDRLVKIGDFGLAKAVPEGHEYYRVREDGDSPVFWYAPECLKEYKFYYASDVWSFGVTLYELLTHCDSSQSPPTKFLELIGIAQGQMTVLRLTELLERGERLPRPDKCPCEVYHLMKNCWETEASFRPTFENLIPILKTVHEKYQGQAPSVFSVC
T1 sequence (P23458 whole entry): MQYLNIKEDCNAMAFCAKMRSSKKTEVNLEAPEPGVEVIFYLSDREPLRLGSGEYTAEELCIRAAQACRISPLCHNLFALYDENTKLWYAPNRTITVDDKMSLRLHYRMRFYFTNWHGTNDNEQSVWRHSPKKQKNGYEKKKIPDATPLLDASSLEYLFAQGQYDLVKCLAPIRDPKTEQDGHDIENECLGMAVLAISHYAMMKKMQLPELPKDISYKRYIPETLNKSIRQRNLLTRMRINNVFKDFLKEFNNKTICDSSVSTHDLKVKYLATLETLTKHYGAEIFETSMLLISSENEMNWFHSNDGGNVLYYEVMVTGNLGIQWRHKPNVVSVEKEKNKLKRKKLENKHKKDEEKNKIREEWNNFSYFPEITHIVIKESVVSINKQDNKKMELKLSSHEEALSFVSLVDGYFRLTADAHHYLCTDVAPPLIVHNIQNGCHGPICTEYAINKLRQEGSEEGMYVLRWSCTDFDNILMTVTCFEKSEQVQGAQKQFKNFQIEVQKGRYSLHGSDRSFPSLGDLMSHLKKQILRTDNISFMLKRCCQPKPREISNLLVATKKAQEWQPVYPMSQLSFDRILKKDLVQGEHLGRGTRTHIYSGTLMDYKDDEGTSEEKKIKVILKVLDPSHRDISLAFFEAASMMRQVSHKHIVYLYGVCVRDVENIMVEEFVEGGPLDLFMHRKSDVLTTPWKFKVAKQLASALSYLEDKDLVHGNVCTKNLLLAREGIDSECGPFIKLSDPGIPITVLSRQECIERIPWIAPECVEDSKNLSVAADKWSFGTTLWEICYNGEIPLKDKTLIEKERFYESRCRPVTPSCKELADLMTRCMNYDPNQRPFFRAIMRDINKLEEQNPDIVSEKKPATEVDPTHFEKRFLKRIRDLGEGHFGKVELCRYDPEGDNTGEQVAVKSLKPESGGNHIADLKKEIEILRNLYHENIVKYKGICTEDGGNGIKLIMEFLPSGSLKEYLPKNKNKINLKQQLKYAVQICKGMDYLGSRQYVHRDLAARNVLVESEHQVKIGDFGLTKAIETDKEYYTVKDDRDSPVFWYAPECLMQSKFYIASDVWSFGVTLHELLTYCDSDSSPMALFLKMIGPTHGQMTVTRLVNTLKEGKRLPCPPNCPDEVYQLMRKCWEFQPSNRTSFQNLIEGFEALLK

Structure (SMILES) | JAK1/JAK2 Kd/Kd ratio (JAK1) | CLint scaled at 1 μM [1] [L/h/kg] | TYK2/JAK2 Kd/Kd ratio (TYK2) | CLint scaled at 1 μM [2] [L/h/kg] | IC50 [3] [µM]
CN(C)C(=O)Nc1cc(Oc2cnc3nc(Nc4cc(C(F)(F)F)cn(C)c4=O)n(C)c3c2C#N)ccn1 [Compound 1, 3-(4-((7-cyano-1-methyl-2-((1-methyl-2-oxo-5-(trifluoromethyl)-1,2-dihydropyridin-3-yl)amino)-1H-imidazo[4,5-b]pyridin-6-yl)oxy)pyridin-2-yl)-1,1-dimethylurea] | B (Kd/Kd ratio<1000 and ≥300) | ≤ 0.36 | C (Kd/Kd ratio<300 and ≥100) | 1.02 to 2.1 | < 0.125
CCN1CCN(Cc2ccc(Nc3nc4ccc(Oc5ccnc(NC(C)=O)c5)cc4n3C)cc2C(F)(F)F)CC1 [Compound R-1, reference compound] | C (Kd/Kd ratio<300 and ≥100) | 0.72 to 1.2 | C (Kd/Kd ratio<300 and ≥100) | 2.1 to 2.7 | 0.2 to 1
